The results in this text go back to US20260285816A1, “Piperazinyl-Modified Quinazolinyl-Aryl Urea Derivative, And Preparation Method And Use Thereof” (Guangxi Normal University, priority 2025, published 2026).

One data set concerns J82 cells. Description: CCK-8 anti-proliferative assay, J82. To be noted: Homo sapiens, J82. The class given is cell-based, human. In outline: (§1)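 Cells seeded at 5,000/well and grown at 37° C., 5% CO2 to 70% confluency, then treated with compound at final 1, 2, 4, 6, 8, 12, 16, 24 and 30 μM in triplicate.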
(In general: Formazan colour is commonly taken as a measure of viable cells.)

Another data set concerns MG-63 cells. Description: CCK-8 anti-proliferative assay, MG-63. The class given is cell-based, human. To be noted: Homo sapiens, MG-63. In outline: (§2)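 Absorbance at 450 nm after CCK-8 labelling (1–4 h, varying by cell line) gave inhibition relative to untreated control, from which IC50 values were derived. Compounds were applied at final concentrations of 1 to 30 μM in triplicate wells once cultures reached 70% confluency, with co-incubation for designated durations.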

In the next data set the test system is UM-UC-3 cells. Description: CCK-8 anti-proliferative assay, UM-UC-3. The class given is cell-based, human. Conditions: Homo sapiens, UMUC3, co-incubated 48 h, read-out: Anti-proliferative activity (IC50 ± standard deviation) UM-UC-3. In short, it runs like this: as §1
A further data set concerns Hep G2 cells. The data set is described as follows: CCK-8 anti-proliferative assay, Hep G2. Type of data set: cell-based, human. Conditions: Homo sapiens, HepG2, co-incubated 48 h, read-out: Anti-proliferative activity (IC50 ± standard deviation) Hep G2. In outline: as §2
The next data set concerns MCF-7 cells. Description: CCK-8 anti-proliferative assay, MCF-7. To be noted: for IC50: Homo sapiens, MCF7, co-incubated 48 h, read-out: Anti-proliferative activity (IC50 ± standard deviation) MCF-7. The class given is cell-based, human. In outline: as §1
The next data set relates to BxPC-3 cells. Description: CCK-8 anti-proliferative assay, BxPC-3. To be noted: for IC50: Homo sapiens, BXPC-3, co-incubated 48 h, read-out: Anti-proliferative activity (IC50 ± standard deviation) BxPC-3. Type of data set: cell-based, human. In outline:
as §2

Another data set relates to T24 cells. The data set is described as follows: CCK-8 anti-proliferative assay, T24. To be noted: Homo sapiens, T-24, co-incubated 48 h, read-out: Anti-proliferative activity (IC50 ± standard deviation) T24. Type of data set: cell-based, human. In short, it runs like this:
as §2

The test system of data set [1] is immortalized ureteral epithelial cells (SV-HUC-1). The data set is described as follows: CCK-8 anti-proliferative assay, normal cells SV-HUC-1. Type of data set: cell-based, human. Conditions: Homo sapiens, SV-HUC1, normal cells, co-incubated 48 h, read-out: Anti-proliferative activity (IC50 ± standard deviation) SV-HUC-1. In outline:
as §1

The test system of a further data set is 143B cells. The data set is described as follows: CCK-8 anti-proliferative assay, 143B. The class given is cell-based, human. To be noted: Homo sapiens, 143B. In outline: as §2
The test system of another data set is PANC-1 cells. Description: CCK-8 anti-proliferative assay, PANC-1. Conditions: for IC50: Homo sapiens, PANC-1, co-incubated 48 h, read-out: Anti-proliferative activity (IC50 ± standard deviation) PANC-1. The class given is cell-based, human. In outline: as §2
The format of data set [2] is physicochemical. The protocol:
0.9% normal saline was added thereto to obtain a solution, which was sterilized under UV light for 30 min. Administration volume was 10 mL/kg per mouse. […]
A resulting mixture was sterilized under UV light for 30 min. Administration volume was 10 mL/kg per mouse.

Data set [3] relates to embryonic lung fibroblasts (WI-38). Description: CCK-8 anti-proliferative assay, normal cells WI-38. Conditions: Homo sapiens, read-out: Anti-proliferative activity (IC50 ± standard deviation) WI-38. The class given is cell-based, human. In outline: as §2
The next data set concerns SK-OV-3 cells. The data set is described as follows: CCK-8 anti-proliferative assay, SK-OV-3. The class given is cell-based, human. To be noted: Homo sapiens, SK-OV-3, co-incubated 48 h, read-out: Anti-proliferative activity (IC50 ± standard deviation) SK-OV-3. In outline: as §1
The test system of another data set is A549 cells. Description: CCK-8 anti-proliferative assay, A549. The class given is cell-based, human. Conditions: for IC50: Homo sapiens, A549, co-incubated 48 h, read-out: Anti-proliferative activity (IC50 ± standard deviation) A549. In short, it runs like this: as §1
A further data set relates to 5637 cells. Description: CCK-8 anti-proliferative assay, 5637. Conditions: Homo sapiens. Type of data set: cell-based, human. In short, it runs like this:
as §1

A further data set deals with HeLa cells. Description: CCK-8 anti-proliferative assay, HeLa. Conditions: for IC50: Homo sapiens, HeLa, co-incubated 48 h, read-out: Anti-proliferative activity (IC50 ± standard deviation) HeLa. Type of data set: cell-based, human. In outline:
as §1

[4] abbreviates: read-out: IC50 values, osteosarcoma cells MG-63.
The mark [5] stands for this setting: read-out: IC50 values, osteosarcoma cells 143B.

“Also recorded” adds a separate entry of the source. Read-outs that look alike come from different tables or passages of the source.

For the compound `COc1cc2ncnc(NCc3cccc(NC(=O)Nc4ccc(C(C)(C)C)cc4)c3)c2cc1OCCCCCCN1CCN(CCN2CCOCC2)CC1` [Compound 8-1j, N-(3-(((7-methoxy-6-((6-(4-(2-morpholinoethyl)piperazin-1-yl)hexyl)oxy)quinazolin-4-yl)amino)methyl)phenyl)-N′-(4-tert-butylphenyl)urea], the IC50 is 2.98 ± 0.27 µM in the data set with J82 cells (Table 6, co-incubated 48 h, read-out: Anti-proliferative activity (IC50 ± standard deviation) J82); 2.98 ± 0.27 µM in the data set with J82 cells (read-out: IC50 values against J82 cells); 4.17 ± 0.38 µM with MG-63 cells (Table 7, co-incubated 48 h, read-out: Anti-proliferative activity (IC50 ± standard deviation) MG-63); less than 5 µM with MG-63 cells (setting [4]); 3.53 ± 0.39 µM with UM-UC-3 cells (Table 6); 3.83 ± 0.36 µM with Hep G2 cells (Table 8). Further, the half-maximal inhibitory concentration (IC50) in the data set with MCF-7 cells (Table 8) is 3.25 ± 0.35 µM; in the data set with BxPC-3 cells (Table 7) it was 6.53 ± 0.48 µM; with T24 cells (Table 6), 4.57 ± 0.42 µM; in data set [1] (Table 9) it was 8.03 ± 0.41 µM; with 143B cells (Table 7, co-incubated 48 h, read-out: Anti-proliferative activity (IC50 ± standard deviation) 143B) it was 3.43 ± 0.25 µM; in the data set on 143B cells (setting [5]), less than 5 µM. Besides, the IC50 in the data set with PANC-1 cells (Table 7) amounted to 7.72 ± 0.66 µM; in data set [3] (WI-38, Table 9, co-incubated 48 h), 10.3 ± 0.36 µM; with SK-OV-3 cells (Table 9), 5.04 ± 0.32 µM; in the data set on A549 cells (Table 8) it was 4.39 ± 0.34 µM; in the data set with 5637 cells (Table 6, co-incubated 48 h, read-out: Anti-proliferative activity (IC50 ± standard deviation) 5637), 3.29 ± 0.27 µM; in the data set with 5637 cells (read-out: IC50 values against 5637 cells) it was 3.29 ± 0.27 µM. Also, the concentration for half-maximal inhibition (IC50) in the data set with HeLa cells (Table 8) worked out at 4.33 ± 0.45 µM. In addition, the “Sensitivity of MCF-7, in words” value in the data set with MCF-7 cells is given as “sensitive”. Besides, in the data set on BxPC-3 cells, the “Sensitivity of BxPC-3 / anti-proliferative activity against BxPC-3, in words” value is “sensitive; also recorded: less sensitive”. In [2], the “Solubility in co-solvents (PEG400+normal saline, PEG400+PBS, PEG400+5% dextrose injection)” value is “superior solubility”. Also, the “Solubility in the PEG400-0.9% normal saline mixture” value in [2] (PEG400:0.9% normal saline 3:1) is reported as “desirable solubility”.

Turning to `CCc1cccc(CC)c1NC(=O)Nc1cccc(CNc2ncnc3cc(OC)c(OCCCCCCN4CCC(CN5CCN(c6ccccn6)CC5)CC4)cc23)c1` [Compound 8-2h, N-(3-(((7-methoxy-6-((6-(4-((4-(pyridin-2-yl)piperazin-1-yl)methyl)piperidin-1-yl)hexyl)oxy)quinazolin-4-yl)amino)methyl)phenyl)-N′-(2,6-diethylphenyl)urea], the IC50 with J82 cells (Table 10, co-incubated 48 h, read-out: Anti-proliferative activity (IC50 ± standard deviation) J82) was 4.42 ± 0.29 µM; in the data set with MG-63 cells (Table 11, co-incubated 48 h, read-out: Anti-proliferative activity (IC50 ± standard deviation) MG-63), 3.97 ± 0.26 µM; in the data set on MG-63 cells (setting [4]), less than 5 µM; in the data set on UM-UC-3 cells (Table 10) it was 5.09 ± 0.35 µM; in the data set with Hep G2 cells (Table 12), 4.66 ± 0.38 µM; in the data set with MCF-7 cells (Table 12), 5.38 ± 0.35 µM. The IC50 is 3.66 ± 0.24 µM in the data set with BxPC-3 cells (Table 11); 4.21 ± 0.36 µM with T24 cells (Table 10); 9.53 ± 0.83 µM in data set [1] (Table 13); 4.91 ± 0.36 µM in the data set on 143B cells (Table 11, co-incubated 48 h, read-out: Anti-proliferative activity (IC50 ± standard deviation) 143B); less than 5 µM in the data set on 143B cells (setting [5]); 4.88 ± 0.29 µM with PANC-1 cells (Table 11). The half-inhibitory concentration (IC50) turned out to be 9.58 ± 0.43 µM in data set [3] (WI-38, Table 13, co-incubated 48 h); 6.12 ± 0.55 µM in the data set with SK-OV-3 cells (Table 12); 3.41 ± 0.26 µM in the data set on A549 cells (Table 13); 4.18 ± 0.22 µM in the data set on 5637 cells (Table 10, co-incubated 48 h, read-out: Anti-proliferative activity (IC50 ± standard deviation) 5637); 3.29 ± 0.18 µM in the data set on HeLa cells (Table 12). Besides, the “Sensitivity of BxPC-3 / anti-proliferative activity against BxPC-3, in words” value with BxPC-3 cells is recorded as “significantly stronger anti-proliferative activity against BxPC-3 than positive control Sora; also recorded: heightened sensitivity; also recorded: very sensitive; also recorded: highly sensitive”. Further, in the data set on PANC-1 cells, the “Sensitivity of PANC-1, in words” value was “sensitive; also recorded: heightened sensitivity”. Further, the “Solubility in co-solvents (PEG400+normal saline, PEG400+PBS, PEG400+5% dextrose injection)” value in data set [2] is on record as “superior solubility”. For the same compound, the “Activity against A549 versus the 8-1 to 8-23 series, in words” value in the data set with A549 cells was “significantly enhanced activity against A549”. Further, the “Sensitivity of HeLa, in words” value in the data set on HeLa cells is recorded as “sensitive”.

One may read the IC50 as the concentration that inhibits the measured activity by half.
